Experimental data from PubChem BioAssay AID248 (DTP/NCI, 2004).
“And” between values parts separate entries of the source, which are not always exact repeats. Equal entries are not always repeated. Toxic doses and inconclusive results are not listed. Cut-off read from the data, not from the text of the source: active = T/C of 150% or more; inactive = T/C below 125%.

Test system: L1210 leukemia ip in BDF1 mice, survival T/C
Test: NCI In Vivo Anticancer Drug Screen. Data for tumor model L1210 Leukemia (intraperitoneal) in B6D2F1 (BDF1) mice
Details: endpoint: mean survival time, higher = longer survival
In short: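 Each compound was tested against a transplantable tumor grown in mice. The endpoint was survival, with treated animals benchmarked against vehicle controls as a simple ratio.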

[1] = dose: 12.5 mg/kg/injection, schedule: Q01DX009 (ip), vehicle: saline
[2] = dose: 25.0 mg/kg/injection, schedule: Q01DX009 (ip), vehicle: saline
[3] = dose: 25.0 mg/kg/injection, schedule: Q04DX003 (ip), vehicle: saline
[4] = dose: 50.0 mg/kg/injection, schedule: Q04DX003 (ip), vehicle: saline
[5] = dose: 50.0 mg/kg/injection, schedule: Q01DX009 (ip), vehicle: saline
[6] = dose: 100.0 mg/kg/injection, schedule: Q04DX003 (ip), vehicle: saline
[7] = dose: 200.0 mg/kg/injection, schedule: Q04DX003 (ip), vehicle: saline
[8] = dose: 100.0 mg/kg/injection, schedule: Q01DX001 (ip), vehicle: saline
[9] = dose: 200.0 mg/kg/injection, schedule: Q01DX001 (ip), vehicle: saline
[10] = dose: 400.0 mg/kg/injection, schedule: Q01DX001 (ip), vehicle: saline
[11] = dose: 100.0 mg/kg/injection, schedule: Q01DX009 (ip), vehicle: Klucel (hydroxypropylcellulose) (HPC)
[12] = dose: 100.0 mg/kg/injection, schedule: Q04DX003 (ip), vehicle: Klucel (hydroxypropylcellulose) (HPC)
[13] = dose: 200.0 mg/kg/injection, schedule: Q01DX009 (ip), vehicle: Klucel (hydroxypropylcellulose) (HPC)
[14] = dose: 200.0 mg/kg/injection, schedule: Q04DX003 (ip), vehicle: Klucel (hydroxypropylcellulose) (HPC)
[15] = dose: 400.0 mg/kg/injection, schedule: Q01DX009 (ip), vehicle: Klucel (hydroxypropylcellulose) (HPC)
[16] = dose: 400.0 mg/kg/injection, schedule: Q04DX003 (ip), vehicle: Klucel (hydroxypropylcellulose) (HPC)
[17] = dose: 75.0 mg/kg/injection, schedule: Q01DX001 (ip), vehicle: saline
[18] = dose: 150.0 mg/kg/injection, schedule: Q01DX001 (ip), vehicle: saline

Measured: T/C

CN(C)S(=O)(=O)Oc1ccc(S(=O)(=O)F)cc1Cl
inactive: dose: 100.0 mg/kg/injection, schedule: Q04DX002 (ip), vehicle: saline 112 % of control | dose: 200.0 mg/kg/injection, schedule: Q04DX002 (ip), vehicle: saline 104 % of control | dose: 400.0 mg/kg/injection, schedule: Q04DX002 (ip), vehicle: saline 112 % of control

CC(C)CCCC(C)C1CCC2C3CC=C4CC(S)CCC4(C)C3CCC12C (configuration not stated)
inactive: dose: 60.0 mg/kg/injection, schedule: Q04DX003 (sc), vehicle: steriod suspending solution 100 % of control | dose: 120.0 mg/kg/injection, schedule: Q04DX003 (sc), vehicle: steriod suspending solution 109 % of control | dose: 240.0 mg/kg/injection, schedule: Q04DX003 (sc), vehicle: steriod suspending solution 105 % of control

COc1ccccc1NC(=O)OCc1ccco1
inactive: dose: 100.0 mg/kg/injection, schedule: Q01DX009 (ip), vehicle: other 106 % of control | dose: 200.0 mg/kg/injection, schedule: Q01DX009 (ip), vehicle: other 101 % of control | dose: 400.0 mg/kg/injection, schedule: Q01DX009 (ip), vehicle: other 104 % of control

CCC1CC[N-]CC1.CCC1CC[N-]CC1.[Cl][Pt+2]([Cl])([Cl])[Cl]
inactive: dose: 6.25 mg/kg/injection, schedule: Q01DX009 (ip), vehicle: saline 103 % of control | [1] 110 % of control | dose: 12.5 mg/kg/injection, schedule: Q04DX003 (ip), vehicle: saline 97 % of control | [2] 86 % of control | [3] 95 % of control | [4] 104 % of control

CC(C)NNC(=O)C(C)N (configuration not stated)
inactive: [1] 87 % of control | [2] 90 % of control | [3] 89 % of control | [5] 92 % of control | [4] 103 % of control | dose: 100.0 mg/kg/injection, schedule: Q01DX009 (ip), vehicle: saline 92 % of control | [6] 89 % of control | dose: 200.0 mg/kg/injection, schedule: Q01DX009 (ip), vehicle: saline 93 % of control | [7] 86 % of control

C=CC(=O)N1c2ccccc2N(C(=O)C=C)C(C)C1C (configuration not stated)
inactive: [8] 112 % of control | [9] 104 % of control | [10] 98 % of control

Cc1ccc([N+](=O)[O-])cc1NC(=O)COc1ccc(Cl)cc1Cl
inactive: [11] 96 % of control | [12] 95 % of control | [13] 91 % of control | [14] 102 % of control | [15] 94 % of control | [16] 91 % of control

O=C(/C=C/C(=O)NCc1ccccc1)NCc1ccccc1
inactive: [6] 100 % of control | [7] 103 % of control | dose: 400.0 mg/kg/injection, schedule: Q04DX003 (ip), vehicle: saline 100 % of control

COC1C=CC2C3Cc4ccc(O)c5c4C2(CCN3C)C1O5 (configuration not stated)
inactive: [17] 104 % of control | [18] 103 % of control

CN(C)C(=S)SCN1CCCCC1
inactive: [11] 103 % of control | [12] 96 % of control | [13] 97 % of control | [14] 104 % of control | [16] 107 % of control

CCCOS(C)(=O)=O
inactive: [8] 100 % of control | [9] 100 % of control | [10] 100 % of control

CCN(CC)C(=O)C1CCC(CCc2c[nH]c3ccccc23)NC1 (configuration not stated)
inactive: [8] 94 % of control

COc1c(Br)c(-c2ccccc2)nc2ccccc12
inactive: [8] 100 % of control | [9] 88 % of control | [10] 92 % of control

N=C(N)CCc1ccccc1
inactive: dose: 75.0 mg/kg/injection, schedule: Q04DX003 (ip), vehicle: saline 99 % of control | dose: 150.0 mg/kg/injection, schedule: Q04DX003 (ip), vehicle: saline 98 % of control

O=[N+]([O-])c1ccc(N/N=C/c2cc(Cl)cc(Cl)c2)c([N+](=O)[O-])c1
inactive: [8] 100 % of control | [9] 105 % of control | [10] 96 % of control

CCCCCCCCCCOP(N)(=O)OCCCCCCCCCC
inactive: dose: 25.0 mg/kg/injection, schedule: Q01DX009 (ip), vehicle: carboxymethylcellulose (CMC) 98 % of control | dose: 50.0 mg/kg/injection, schedule: Q01DX009 (ip), vehicle: carboxymethylcellulose (CMC) 104 % of control | dose: 50.0 mg/kg/injection, schedule: Q04DX003 (ip), vehicle: carboxymethylcellulose (CMC) 89 % of control | dose: 100.0 mg/kg/injection, schedule: Q01DX009 (ip), vehicle: carboxymethylcellulose (CMC) 93 % of control | dose: 100.0 mg/kg/injection, schedule: Q04DX003 (ip), vehicle: carboxymethylcellulose (CMC) 94 % of control | dose: 225.0 mg/kg/injection, schedule: Q01DX009 (ip), vehicle: carboxymethylcellulose (CMC) 104 % of control

Cc1ccc(CNc2ccc(C)cc2)cc1
inactive: [11] 100 % of control | [12] 98 % of control | [13] 106 % of control | [14] 100 % of control | [15] 99 % of control | [16] 95 % of control

c1ccc2c(c1)CC1CCCCN1C2 (configuration not stated)
inactive: dose: 12.5 mg/kg/injection, schedule: Q01DX001 (ip), vehicle: Klucel (hydroxypropylcellulose) (HPC) 93 % of control | dose: 25.0 mg/kg/injection, schedule: Q01DX001 (ip), vehicle: Klucel (hydroxypropylcellulose) (HPC) 98 % of control | [2] 96 % of control | dose: 50.0 mg/kg/injection, schedule: Q01DX001 (ip), vehicle: Klucel (hydroxypropylcellulose) (HPC) 93 % of control | [5] 106 % of control | [6] 88 % of control

CN(C)c1ccc(/C=N/NC(=O)c2ccc(N)cc2)cc1
inactive: [11] 89 % of control | [13] 86 % of control | [15] 89 % of control

C=C1CC2CC(C)CCC2OC1=O (configuration not stated)
inactive: [8] 102 % of control | [9] 98 % of control | [10] 98 % of control

Cc1c2cnccc2c(C)c2c1[nH]c1ccccc12
inactive: dose: 25.0 mg/kg/injection, schedule: Q01DX Z (ip), vehicle: saline 104 % of control | dose: 50.0 mg/kg/injection, schedule: Q01DX Z (ip), vehicle: saline 102 % of control | dose: 75.0 mg/kg/injection, schedule: Q01DX Z (ip), vehicle: saline 100 % of control | [8] 97 % of control | dose: 100.0 mg/kg/injection, schedule: Q01DX Z (ip), vehicle: saline 102 % of control and 92 % of control | dose: 150.0 mg/kg/injection, schedule: Q01DX Z (ip), vehicle: saline 90 % of control | [9] 100 % of control | dose: 225.0 mg/kg/injection, schedule: Q01DX Z (ip), vehicle: saline 93 % of control | dose: 335.0 mg/kg/injection, schedule: Q01DX Z (ip), vehicle: saline 97 % of control and 98 % of control | [10] 100 % of control | dose: 500.0 mg/kg/injection, schedule: Q01DX Z (ip), vehicle: saline 113 % of control

Cc1c(NC(=O)Nc2cccc(F)c2)c(=O)n(-c2ccccc2)n1C
inactive: dose: 100.0 mg/kg/injection, schedule: Q01DX009 (ip), vehicle: saline with Tween-80 101 % of control | dose: 100.0 mg/kg/injection, schedule: Q04DX003 (ip), vehicle: saline with Tween-80 104 % of control | dose: 200.0 mg/kg/injection, schedule: Q01DX009 (ip), vehicle: saline with Tween-80 98 % of control | dose: 200.0 mg/kg/injection, schedule: Q04DX003 (ip), vehicle: saline with Tween-80 104 % of control | dose: 400.0 mg/kg/injection, schedule: Q01DX009 (ip), vehicle: saline with Tween-80 98 % of control | dose: 400.0 mg/kg/injection, schedule: Q04DX003 (ip), vehicle: saline with Tween-80 101 % of control

O=[N+]([O-])c1cnc(C2=C(O)c3ccccc3CC2)s1
inactive: dose: 100.0 mg/kg/injection, schedule: Q01DX001 (ip), vehicle: saline with Tween-80 97 % of control

CN(C)c1ccc(/C=N/NC(=O)c2ccccc2NC(=O)C2CC2)cc1
inactive: [11] 93 % of control | [13] 104 % of control | [15] 90 % of control

NS(=O)(=O)c1cc(Br)c2c(c1)S(=O)(=O)NCN2
inactive: dose: 65.0 mg/kg/injection, schedule: Q01DX009 (ip), vehicle: Klucel (hydroxypropylcellulose) (HPC) 102 % of control | [17] 106 % of control | dose: 135.0 mg/kg/injection, schedule: Q01DX009 (ip), vehicle: Klucel (hydroxypropylcellulose) (HPC) 88 % of control | [18] 96 % of control | [13] 100 % of control | dose: 300.0 mg/kg/injection, schedule: Q01DX009 (ip), vehicle: Klucel (hydroxypropylcellulose) (HPC) 97 % of control | dose: 600.0 mg/kg/injection, schedule: Q01DX009 (ip), vehicle: Klucel (hydroxypropylcellulose) (HPC) 88 % of control
